Positions of bridges follow the written chain, without caps; N, C: chain ends. Residues, ends and D or L forms follow the SMILES beside them. No end group written: not given here.
How the values were obtained:
[1] = system: lung normal cell line CCD39; settings: CCD39, 30 μM and 60 μM
Method: (§1) To analyze the cytotoxicity of cell therapeutic peptide fragments on normal cell lines, lung normal cell lines WI38 and CCD39 were treated with OCP9 (SEQ ID NO: 16), OCP9-VGLLIS84-7CC (SEQ ID NO: 44), OCP9-VGLLIS84-9CC (SEQ ID NO: 46) and OCP9-VGLL1S84-11CC (SEQ ID NO: 48) at 30 μM and 60 μM, respectively, and the growth degrees of the cell lines were evaluated.

[2] = system: lung normal cell line WI38; settings: WI38, 30 μM and 60 μM
Method: as §1

[3] = system: stomach cancer cell line NUGC3; test: Cell growth inhibition (sulforhodamine B staining); format: cell-based; settings: for cancer cell growth inhibitory effect: NUGC3, 10 μM screening of Table 4 peptides; for cell permeability (as concluded from the growth inhibition screening): NUGC3, 10 μM screening; for cancer cell growth inhibitory efficacy: NUGC3, treated for each concentration
Method: (§2) Specifically, in order to confirm cell growth ability, a stomach cancer cell line NUGC3 and a breast cancer cell line SK-BR-3 were each subcultured in a 96-well plate, and the next day, peptide fragments Con, 7, and CC of Table 2 were treated with 100 μM each to the cell lines. After 72 hours, the cells were immobilized with a 10% trichloroacetic acid solution, and then stained the cell with a 0.4% sulforhodamine B solution for 1 hour, washed with acetic acid, and dried. Thereafter, the dried cells were dissolved in a 10 mM Tris solution and absorbance was measured at 510 nm using an ELISA plate reader.
In order to compare the cancer cell growth inhibitory effects of cancer therapeutic peptides according to cell-penetrating peptides, the stomach cancer cell line NUGC3 was treated with 10 μM each of cancer therapeutic peptide fragments in Table 4, and the cancer cell growth inhibitory effects were screened in the same manner as in Example 1.
Specifically, in order to confirm the cancer cell inhibition enhancing effect by enhancing the cell permeability of OCP5 among the novel synthesized CPPs, a cancer therapeutic peptide fragment represented by SEQ ID NO: 6 including the existing TAT and a cancer therapeutic peptide fragment represented by SEQ ID NO: 31 including the novel synthesized OCP5 were used. The stomach cancer cell lines NUGC3 and AGS, the breast cancer cell line SK-BR-3, and the pancreatic cancer cell line Capan-1 were treated with 25 μM SEQ ID NO: 6 and 100 μM SEQ ID NO: 31 for 72 hours, respectively, and the cancer cell growth inhibitory effects were compared in the same manner as in Example 1. […] Through this, it was confirmed that the novel CPP may be applied more effectively than the existing TAT to inhibit the cancer cell growth by the anticancer peptides.
(§3) To analyze the cancer cell growth inhibitory effect according to a length of the anticancer peptide fragment, OCP9-VGLLIS84-7 (SEQ ID NO: 43), OCP9-VGLLIS84-9CC (SEQ ID NO: 46), and OCP9-VGLLIS84-15 (SEQ ID NO: 49) were treated for each concentration to analyze the growth inhibitory effects of stomach cancer cell lines NUGC3 and NCI-N87. When stomach cancer cells were treated with cancer therapeutic peptides, the cancer cell growth inhibitory efficacy was shown in a concentration-dependent manner. In addition, it was confirmed that the growth inhibitory effect on the stomach cancer cell lines increased as the length of the anticancer peptide fragment increased (FIG. 7).
Specifically, the cancer cell growth inhibitory effect according to partial or entire cyclization of the anticancer peptide fragment was analyzed. The stomach cancer cell line NUGC3 was treated with a CPP fragment OCP9 (SEQ ID NO: 16), a partially cyclized sequence […] (SEQ ID NO: 33), or a sequence OCP9-VGLLIS84-7CC (SEQ ID NO: 40) including an entirely cyclized anticancer peptide at different concentrations of 1, 2.5, 5, 10, and 20 μM, respectively, and the cancer cell growth inhibitory effects were compared in the same manner as in Example 1.

cell line NUGC3 = test: Cell permeability of FITC-conjugated peptides by FACS; format: cell-based; settings: NUGC3, 1.5 or 2.5 μM FITC-conjugated peptide, 3 hours; compared to TAT
Method: To quantitatively measure the cell permeability of the novel synthesized cell-penetrating peptides, 1.5 or 2.5 μM FITC-conjugated peptides were administered to the cell line NUGC3 or the normal cell line WI38, and after 3 hours, the amounts of FITC present in the cells were measured by FACS.

[4] = system: stomach cancer cell lines NUGC3; test: Mouse xenograft experiment (tumor formation); format: in vivo, Balb-c/nude mouse; settings: intraperitoneally 10 mg/kg once a day
Method: A mouse xenograft experiment was performed to analyze a tumor formation inhibitory effect of cancer therapeutic peptide fragments. Specifically, 5×10^6 stomach cancer cell lines NUGC3 were transplanted by subcutaneous injection into a flank site of a 6-week-old female Balb-c/nude mouse, and after one week (average tumor size 100 mm^3), Vehicle (0.9% saline), OCP5 (SEQ ID NO: 12), OCP5-VGLL1S84-15C (SEQ ID NO: 29), or OCP5-VGLL1S84-7C (SEQ ID NO: 33) was each administered intraperitoneally at 10 mg/kg once a day. Tumor size was measured with a digital caliper at 2-day intervals from the start of drug administration, and the tumor size (tumor size (mm^3)=long axis x short axis2) was calculated. The experiment was terminated when the average tumor size of the OCP5-administered group was 1,000 mm3, and then the tumor was extracted, and the tumor weight was measured.

[5] = system: stomach cancer cell line NCI-N87; test: Cell growth inhibition (sulforhodamine B staining); format: cell-based; settings: NCI-N87, treated for each concentration
Method: as §2, §3

CC[C@H](C)[C@@H]1NC(=O)[C@H](CCCNC(=N)N)NC(=O)[C@H](Cc2ccccc2)NC(=O)[C@H]([C@@H](C)CC)NC(=O)[C@H]([C@@H](C)CC)NC(=O)[C@H](CO)NC(=O)[C@@H](N)CSSC[C@@H](C(=O)O)NC(=O)[C@H](CCCCN)NC(=O)[C@H]([C@@H](C)O)NC(=O)[C@H](Cc2c[nH]c3ccccc23)NC(=O)[C@@H]2CCCN2C(=O)[C@H](CO)NC(=O)[C@H](CO)NC(=O)[C@H](Cc2ccc(O)cc2)NC(=O)[C@H](CCCNC(=N)N)NC(=O)[C@H](CCCNC(=N)N)NC(=O)[C@H](CCCNC(=N)N)NC(=O)[C@H](CCCNC(=N)N)NC(=O)[C@H](CCCNC(=N)N)NC(=O)[C@H](Cc2ccccc2)NC1=O [OCP9-VGLL1S84-7CC, CSIIFRIFRRRRR-YSSPWTKC] (HELM PEPTIDE1{C.S.I.I.F.R.I.F.R.R.R.R.R.Y.S.S.P.W.T.K.C}$PEPTIDE1,PEPTIDE1,1:R3-21:R3$$$V2.0)
cytotoxicity (growth inhibitory or abnormal effect) [1]: no cytotoxicity
cytotoxicity (growth inhibitory or abnormal effect) [2]: no cytotoxicity

CC[C@H](C)[C@@H]1NC(=O)[C@H](CCCNC(=N)N)NC(=O)[C@H](Cc2ccccc2)NC(=O)[C@H]([C@@H](C)CC)NC(=O)[C@H]([C@@H](C)CC)NC(=O)[C@H](CO)NC(=O)[C@@H](N)CSSC[C@@H](C(=O)O)NC(=O)[C@H](CCCCN)NC(=O)[C@H]([C@@H](C)O)NC(=O)[C@H](Cc2c[nH]c3ccccc23)NC(=O)[C@@H]2CCCN2C(=O)[C@H](CO)NC(=O)[C@H](CO)NC(=O)[C@H](Cc2ccc(O)cc2)NC(=O)[C@H](CCCNC(=N)N)NC(=O)[C@H](Cc2c[nH]c3ccccc23)NC(=O)[C@H](CCCNC(=N)N)NC(=O)[C@H](CCCNC(=N)N)NC(=O)[C@H](CCCNC(=N)N)NC(=O)[C@H](CCCNC(=N)N)NC(=O)[C@H](CCCNC(=N)N)NC(=O)[C@H](Cc2ccccc2)NC1=O [OCP9-VGLL1S84-9CC, CSIIFRIFRRRRR-WRYSSPWTKC] (HELM PEPTIDE1{C.S.I.I.F.R.I.F.R.R.R.R.R.W.R.Y.S.S.P.W.T.K.C}$PEPTIDE1,PEPTIDE1,1:R3-23:R3$$$V2.0)
cytotoxicity (growth inhibitory or abnormal effect) [1]: no cytotoxicity
cytotoxicity (growth inhibitory or abnormal effect) [2]: no cytotoxicity

CC[C@H](C)[C@@H]1NC(=O)[C@H](CCCNC(=N)N)NC(=O)[C@H](Cc2ccccc2)NC(=O)[C@H]([C@@H](C)CC)NC(=O)[C@H]([C@@H](C)CC)NC(=O)[C@H](CO)NC(=O)[C@@H](N)CSSC[C@@H](C(=O)O)NC(=O)[C@H](CCCCN)NC(=O)[C@H]([C@@H](C)O)NC(=O)[C@H](Cc2c[nH]c3ccccc23)NC(=O)[C@@H]2CCCN2C(=O)[C@H](CO)NC(=O)[C@H](CO)NC(=O)[C@H](Cc2ccc(O)cc2)NC(=O)[C@H](CCCNC(=N)N)NC(=O)[C@H](Cc2c[nH]c3ccccc23)NC(=O)[C@H](CCC(N)=O)NC(=O)[C@H](CC(N)=O)NC(=O)[C@H](CCCNC(=N)N)NC(=O)[C@H](CCCNC(=N)N)NC(=O)[C@H](CCCNC(=N)N)NC(=O)[C@H](CCCNC(=N)N)NC(=O)[C@H](CCCNC(=N)N)NC(=O)[C@H](Cc2ccccc2)NC1=O [OCP9-VGLL1S84-11CC, CSIIFRIFRRRRR-NQWRYSSPWTKC] (HELM PEPTIDE1{C.S.I.I.F.R.I.F.R.R.R.R.R.N.Q.W.R.Y.S.S.P.W.T.K.C}$PEPTIDE1,PEPTIDE1,1:R3-25:R3$$$V2.0)
cytotoxicity (growth inhibitory or abnormal effect) [1]: no cytotoxicity
cytotoxicity (growth inhibitory or abnormal effect) [2]: no cytotoxicity

KKKKRKVRGDSI (OCP15)
cancer cell growth inhibitory effect [3]: excluding

KKKKRKVSIIFIRGD (OCP16)
cancer cell growth inhibitory effect [3]: excluding

KKKKRKVSIIFRIF (OCP18)
intracellular permeability (amount of FITC in the cells) (cell line NUGC3): significantly increased

KKKKRKVSIRGD (OCP17)
cancer cell growth inhibitory effect [3]: excluding

RRRRRGDSIIF (OCP13)
cancer cell growth inhibitory effect [3]: excluding

RRRRRSIIFRGD (OCP12)
cancer cell growth inhibitory effect [3]: excluding

SIIFRIFLHLQK (OCP1)
cell permeability (as concluded from the growth inhibition screening) [3]: increased

SIIFRIFLHLQK-CYSSPWTKC (SIIFRIFLHLQKCYSSPWTKC; disulfide 13-21) [SEQ ID NO: 31]
cancer cell growth inhibitory effect [3]: significant cancer cell growth inhibitory effect

SIIFRIFLHLQKRRR (OCP5)
cell permeability (as concluded from the growth inhibition screening) [3]: increased
cancer cell growth inhibitory effect [3]: increased
intracellular permeability (amount of FITC in the cells) (cell line NUGC3): significantly increased
effect on tumor formation compared to the vehicle group [4]: did not affect the tumor formation

SIIFRIFRRRRR (OCP9)
intracellular permeability (amount of FITC in the cells) (cell line NUGC3): significantly increased

SIIFRIFRRRRR-PNQWRYSSPWTKPQP (SIIFRIFRRRRRPNQWRYSSPWTKPQP; OCP9-VGLL1S84-15) [OCP9-VGLLIS84-15]
cancer cell growth inhibitory efficacy [3]: concentration-dependent
cancer cell growth inhibitory efficacy [5]: concentration-dependent

SIIFRIFRRRRR-YSSPWTK (SIIFRIFRRRRRYSSPWTK; OCP9-VGLL1S84-7) [OCP9-VGLLIS84-7]
cancer cell growth inhibitory efficacy [3]: concentration-dependent
cancer cell growth inhibitory efficacy [5]: concentration-dependent

From US20240336659A1, “CELL-PENETRATING PEPTIDE, ANTI-CANCER PEPTIDE, AND PHARMACEUTICAL COMPOSITION FOR PREVENTING OR TREATING CANCER, COMPRISING SAME” (ONECUREGEN CO., LTD., priority 2021, published 2024)
